# Measurements published in patent US20150297629A1, “MODULATION OF RENIN-ANGIOTENSIN SYSTEM (RAS) RELATED DISEASES BY ANGIOTENSINOGEN” (Isis Pharmaceuticals, Inc,, priority 2012, published 2015).
# Oligonucleotides are written 5' to 3', each unit as a sugar letter and its base; * is a phosphorothioate linkage, no mark a phosphodiester; rarer units and linkages stand in square brackets, end groups in braces. Plain capitals give the bases only. e = 2'-O-(2-methoxyethyl) (MOE); [5mC] = 5-methylcytosine; d = 2'-deoxy (DNA)
# Tests used:
# [1] = system: angiotensinogen mRNA; experiment: Real-time PCR of angiotensinogen mRNA in liver and kidney of Sprague-Dawley rats; format: in vivo; settings: relative to PBS control
# Description: A control group of rats was injected with phosphate buffered saline (PBS) administered weekly for 4 weeks. The rats were sacrificed at the end of the study at week 4. Whole liver and kidney were harvested for RNA analysis and plasma was collected for protein analysis. RNA was extracted from liver tissue for real-time PCR analysis of angiotensinogen, using primer probe set RTS3550 (forward sequence [NT], designated herein as SEQ ID NO: 18; reverse sequence [NT], designated herein as SEQ ID NO: 19; probe sequence [NT], designated herein as SEQ ID NO: 20). The mRNA levels were normalized using the housekeeping gene, GAPDH. […] Results are presented as percent inhibition of angiotensinogen, relative to control.
# [2] = system: angiotensinogen protein; experiment: ELISA of angiotensinogen plasma levels in Sprague-Dawley rats; format: in vivo; settings: for Percent inhibition of angiotensinogen protein: plasma, relative to PBS control
# Description: (§1) Groups of Sprague-Dawley rats were injected with 10 mg/kg/week, 20 mg/kg/week, 40 mg/kg/week, or 80 mg/kg/week of ISIS 552668 administered for 4 weeks. A control group of rats was injected with phosphate buffered saline (PBS) administered weekly for 4 weeks. The rats were sacrificed at the end of the study at week 4. Whole liver and kidney were harvested for RNA analysis and plasma was collected for protein analysis.
# (§2) Angiotensinogen plasma levels were measured by ELISA (IBL International, Toronto, Canada). […] Results are presented as percent inhibition of angiotensinogen, relative to PBS control.
# [3] = system: Sprague-Dawley rats; experiment: Blood pressure by tail-cuff volume-pressure method in Sprague-Dawley rats; format: in vivo; settings: after 4 wks of treatments
# Description: as §1
# (§3) Systolic blood pressure (SBP), mean arterial pressure (MAP), and diastolic blood pressure (DBP) in the rats was measured by the tail-cuff volume-pressure method (Kent Scientific, Torrington, Conn.).
# [4] = system: female SHR rats; experiment: Blood pressure by tail-cuff method in female SHR rats, Study 1; format: in vivo, Spontaneously hypertensive (SHR) rats; settings: 2 weeks
# Description: Groups of female SHR rats were injected with 50 mg/kg/week, 75 mg/kg/week, or 100 mg/kg/week of ISIS 552668 administered for 2 weeks. A control group of female SHR rats was injected with phosphate buffered saline (PBS) administered weekly for 2 weeks. Another control group constituted a group of wild-type rats injected with phosphate buffered saline (PBS) administered weekly for 2 weeks.
# as §3
# [5] = system: female SHR rats; experiment: Blood pressure by tail-cuff method in female SHR rats with subsequent Captopril, Study 2; format: in vivo, Spontaneously hypertensive (SHR) rats; settings: then Captopril 50 mg/kg/day for 4 days
# Description: A control group of female SHR rats was injected with phosphate buffered saline (PBS) administered weekly for 2 weeks. Another control group constituted a group of wild-type rats injected with phosphate buffered saline (PBS) administered weekly for 2 weeks. […] Systolic blood pressure (SBP), mean arterial pressure (MAP), and diastolic blood pressure (DBP) in the rats was measured by the tail-cuff volume-pressure method (Kent Scientific, Torrington, Conn.).
# [6] = system: female SHR rats; experiment: Heart size after harvest in female SHR rats, Study 2; format: in vivo, Spontaneously hypertensive (SHR) rats; settings: after 3 weeks, versus wild-type controls
# Description: The size of the heart was measured immediately after harvest.
# [7] = system: SHR; experiment: Mean arterial pressure by tail-cuff method in SHR, Study 3; format: in vivo, Spontaneously hypertensive (SHR) rats; settings: ISIS 552668 and control oligonucleotide 100 mg/kg/week, Captopril 150 mg/kg/day
# Description: A control group of SHR was injected with phosphate buffered saline (PBS) administered weekly for 3 weeks. Another control group of SHR was injected with 100 mg/kg/week of a control oligonucleotide (a nucleotide not targeted to angiotensinogen) administered for 3 weeks. […] Mean arterial pressure (MAP) in the rats was measured by the tail-cuff volume-pressure method (Kent Scientific, Torrington, Conn.).
# [8] = system: angiotensinogen mRNA; experiment: Real-time PCR of angiotensinogen mRNA in SHR tissues, Study 3; format: in vivo, Spontaneously hypertensive (SHR) rats; settings: 3 weeks, oligonucleotides 100 mg/kg/week, Captopril 150 mg/kg/day
# Description: (§4) A group of SHR was injected with 100 mg/kg/week of ISIS 552668 administered for 3 weeks. A control group of SHR was injected with phosphate buffered saline (PBS) administered weekly for 3 weeks. Another control group of SHR was injected with 100 mg/kg/week of a control oligonucleotide (a nucleotide not targeted to angiotensinogen) administered for 3 weeks.
# […] The mRNA levels were normalized using the housekeeping gene, GAPDH. […] Results are presented as percent inhibition of angiotensinogen, relative to control.
# [9] = system: renin mRNA; experiment: Real-time PCR of kidney renin mRNA in SHR, Study 3; format: in vivo, Spontaneously hypertensive (SHR) rats; settings: 3 weeks, oligonucleotides 100 mg/kg/week, Captopril 150 mg/kg/day, PBS = 100
# Description: A control group of SHR was injected with phosphate buffered saline (PBS) administered weekly for 3 weeks. Another control group of SHR was injected with 100 mg/kg/week of a control oligonucleotide (a nucleotide not targeted to angiotensinogen) administered for 3 weeks. […] RNA was extracted from kidney tissue for real-time PCR analysis of renin, using primer probe set rRenin2 (forward sequence [NT], designated herein as SEQ ID NO: 21; reverse sequence [NT], designated herein as SEQ ID NO: 22; probe sequence [NT], designated herein as SEQ ID NO: 23). The mRNA levels were normalized using the housekeeping gene, GAPDH. […] Increase in renin in the body is deleterious to the overall health of the animal (Nguyen and Muller, The Biology of the (Pro)Renin Receptor, J Am Soc Nephrol, 2010 January, 21(1):18-23). […] Results are presented as percent expression of renin, relative to control.
# [10] = system: angiotensinogen protein; experiment: ELISA of angiotensinogen plasma levels in SHR, Study 3; format: in vivo, Spontaneously hypertensive (SHR) rats; settings: 3 weeks, oligonucleotides 100 mg/kg/week, Captopril 150 mg/kg/day
# Description: as §4, §2
# [11] = system: angiotensinogen; experiment: Immunohistochemical analysis of liver, cardiac and kidney tissues in SHR, Study 3; format: in vivo, Spontaneously hypertensive (SHR) rats; settings: 100 mg/kg/week for 3 weeks, compared to the PBS control
# Description: as §4
# [12] = system: SHR; experiment: Systolic blood pressure by tail-cuff method in SHR before and after ISIS 552668 added to chronic Captopril, Study 4; format: in vivo, Spontaneously hypertensive (SHR) rats; settings: no Captopril
# [13] = system: Dahl/SS rats; experiment: Blood pressure by tail-cuff method in Dahl/SS rats; format: in vivo, Dahl/Salt Sensititive (Dahl/SS) rats; settings: female Dahl/SS rats, 8% NaCl diet; 3 weeks; ISIS oligonucleotides 40 mg/kg/week, Captopril 150 mg/kg daily
# Description: The rats were fed a diet with 8% NaCl. A group of female Dahl/SS rats was injected with 40 mg/kg/week of ISIS 552668 administered for 3 weeks. A group of female Dahl/SS rats was injected with 40 mg/kg/week of control oligonucleotides ISIS 141923 administered for 3 weeks. […] A control group of female Dahl/SS rats was injected with phosphate buffered saline (PBS) administered weekly for 3 weeks. Another control group constituted a group of Dahl/Salt Resistant (Dahl/SR) rats injected with phosphate buffered saline (PBS) administered weekly for 3 weeks.
# Systolic blood pressure (SBP), mean arterial pressure (MAP), and diastolic blood pressure (DBP) in the rats was measured by the tail-cuff volume-pressure method (Kent Scientific). The results are presented in Table 12, expressed as the percent decrease in blood pressure compared to the control SHR group.
substance,measurement,setting,value
"ISIS 552668: 5-10-5 MOE gapmer CACTGATTTTTGCCCAGGAT (SEQ ID NO: 17), phosphorothioate linkages, 5-methylcytosines, targeted to rat angiotensinogen (antisense e[5mC]*eA*e[5mC]*eT*eG*dA*dT*dT*dT*dT*dT*dG*d[5mC]*d[5mC]*d[5mC]*eA*eG*eG*eA*eT)","Percent inhibition of angiotensinogen mRNA, Kidney",[1]; 10 mg/kg/wk for 4 weeks,41%
same,"Percent inhibition of angiotensinogen mRNA, Liver",[1]; 10 mg/kg/wk for 4 weeks,19%
same,"Percent inhibition of angiotensinogen mRNA, Kidney",[1]; 20 mg/kg/wk for 4 weeks,68%
same,"Percent inhibition of angiotensinogen mRNA, Liver",[1]; 20 mg/kg/wk for 4 weeks,59%
same,"Percent inhibition of angiotensinogen mRNA, Kidney",[1]; 40 mg/kg/wk for 4 weeks,75%
same,"Percent inhibition of angiotensinogen mRNA, Liver",[1]; 40 mg/kg/wk for 4 weeks,86%
same,"Percent inhibition of angiotensinogen mRNA, Kidney",[1]; 80 mg/kg/wk for 4 weeks,77%
same,"Percent inhibition of angiotensinogen mRNA, Liver",[1]; 80 mg/kg/wk for 4 weeks,96%
same,Percent inhibition of angiotensinogen protein,[2]; 10 mg/kg/wk for 4 weeks,25%
same,Percent inhibition of angiotensinogen protein,[2]; 20 mg/kg/wk for 4 weeks,38%
same,Percent inhibition of angiotensinogen protein,[2]; 40 mg/kg/wk for 4 weeks,83%
same,Percent inhibition of angiotensinogen protein,[2]; 80 mg/kg/wk for 4 weeks,93%
same,ED50 for plasma protein reductions,[2]; weekly dosing for 4 weeks,23.6 mg/kg
same,DBP,[3]; 10 mg/kg/wk,107 mm Hg
same,MAP,[3]; 10 mg/kg/wk,117 mm Hg
same,SBP,[3]; 10 mg/kg/wk,138 mm Hg
same,DBP,[3]; 40 mg/kg/wk,79 mm Hg
same,MAP,[3]; 40 mg/kg/wk,92 mm Hg
same,SBP,[3]; 40 mg/kg/wk,118 mm Hg
same,DBP,[3]; 80 mg/kg/wk,68 mm Hg
same,MAP,[3]; 80 mg/kg/wk,82 mm Hg
same,SBP,[3]; 80 mg/kg/wk,109 mm Hg
same,DBP,[4]; 50 mg/kg/wk,100 mm Hg
same,MAP,[4]; 50 mg/kg/wk,114 mm Hg
same,SBP,[4]; 50 mg/kg/wk,144 mm Hg
same,DBP,[4]; 75 mg/kg/wk,98 mm Hg
same,MAP,[4]; 75 mg/kg/wk,111 mm Hg
same,SBP,[4]; 75 mg/kg/wk,140 mm Hg
same,DBP,[4]; 100 mg/kg/wk,81 mm Hg
same,MAP,[4]; 100 mg/kg/wk,95 mm Hg
same,SBP,[4]; 100 mg/kg/wk,122 mm Hg
same,DBP,[5]; ASO 50 mg/kg/wk for 2 weeks,82 mm Hg
same,MAP,[5]; ASO 50 mg/kg/wk for 2 weeks,97 mm Hg
same,SBP,[5]; ASO 50 mg/kg/wk for 2 weeks,127 mm Hg
same,DBP,[5]; ASO 75 mg/kg/wk for 2 weeks,74 mm Hg
same,MAP,[5]; ASO 75 mg/kg/wk for 2 weeks,87 mm Hg
same,SBP,[5]; ASO 75 mg/kg/wk for 2 weeks,113 mm Hg
same,DBP,[5]; ASO 100 mg/kg/wk for 2 weeks,81 mm Hg
same,MAP,[5]; ASO 100 mg/kg/wk for 2 weeks,94 mm Hg
same,SBP,[5]; ASO 100 mg/kg/wk for 2 weeks,120 mm Hg
same,Effect on heart size of the SHR rats,[6],reversed the increase in heart size of the SHR rats to that observed in the wild-type controls
same,"MAP, Week 1",[7],117 mm Hg
same,"MAP, Week 2",[7],104 mm Hg
same,"MAP, Week 3",[7],109 mm Hg
same,"Percent inhibition of angiotensinogen mRNA compared to the PBS control, Heart",[8],89%
same,"Percent inhibition of angiotensinogen mRNA compared to the PBS control, Kidney",[8],76%
same,"Percent inhibition of angiotensinogen mRNA compared to the PBS control, Liver",[8],87%
same,Percent increase of kidney renin mRNA,[9],379%
same,Percent inhibition of angiotensinogen protein in the plasma compared to the PBS control,[10],91%
same,"Angiotensinogen in liver, cardiac and kidney tissues by immunohistochemical analysis",[11],significant reduction of angiotensinogen
same,"Blood pressure (SBP), Before ISIS 552668 dosing",[12]; ISIS 552668 50 mg/kg/week,146
same,"Blood pressure (SBP), Before ISIS 552668 dosing",[12]; ISIS 552668 100 mg/kg/week,131
same,DBP,[13],94 mm Hg
same,MAP,[13],111 mm Hg
same,SBP,[13],146 mm Hg
